Tests used:
[1] = system: NCI-H358(KRAS^G12C mutation) cells; assay: Cell assay of antiproliferative activity (Celltiter-Glo, 5 days) against NCI-H358 cells; assay type: cell-based; details: 5 days incubation
Method in brief: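 Cells plated overnight, then given a 10-point compound series (stock dilutions 50 μM to 0.003 μM, 100 nL added per well) and grown 5 days. Luminescence read after 10 min shaking at room temperature. IC50 from curve fitting.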

[2] = system: A549(KRAS^G12S mutation) cells; assay: Cell assay of antiproliferative activity (Celltiter-Glo, 5 days) against A549 cells; assay type: cell-based; details: Homo sapiens, 120 h, 5 days incubation
Procedure: Cell assay of antiproliferative activity of compounds against NCI-H358(KRAS^G12C mutation) and A549(KRAS^G12S mutation) cells.
40 μl phosphate buffer was added to the outer wells of the 384 microplate, and 40 μl cell suspension to be tested was added to the other wells. Then the microplate was incubated in a carbon dioxide incubator overnight.
The compounds to be tested were gradiently diluted, each compound was performed 10 concentration gradients (diluted from 50 μM to 0.003 μM) and added 100 nL to the corresponding wells in the microplate. After addition, 40 μl of phosphate buffer was added to each well in rows A and P and columns 1 and 24, and then the microplate was incubated in a carbon dioxide incubator for 5 days.
20 μL of Promega Celltiter-Glo reagent was added to each well of the microplate, and then the luminescence signal was stabilized by oscillating at room temperature for 10 min. Then PekinElmer Envision multi-label analyzer was used to read.
Finally, GraphPad Prism software was used to calculate the IC50 value of the compound and the fitting curve was drawn.
Anti-proliferative activity of the compounds of the present invention against NCI-H358(KRAS^G12C mutation) and A549(KRAS^G12S mutation) cells were shown in Table 1.

Compound | IC50 ([1]; Homo sapiens, NCI-H358, 120 h) | IC50 [2] | IC50 [1]
C=CC(=O)N1CCN(c2nc(OC[C@@H](COC)N(C)C3CCC3)nc3c2CCN(c2cccc4cccc(C)c24)C3)CC1CC#N (stereo partly drawn) [Example 1, 2-(1-acroloyl-4-(2-((R)-2-(cyclobutyl(methyl)amino)-3-methoxypropoxy)-7-(8-methylnaphthalen-1-yl)-5,6,7,8-tetrahydropyrido[3,4-d]pyrimidin-4-yl)piperazin-2-yl) acetonitrile] | 0.22 µM | 7.1 µM | –
C=CC(=O)N1CCN(c2nc(OCC3(CN(C)C)CC3)nc3c2CCN(c2cccc4cccc(Cl)c24)C3)CC1CC#N (stereo not drawn) [Example 2, 2-(1-acroloyl-4-(7-(8-chloronaphthalen-1-yl)-2-((1-((dimethylamino)methyl)cyclopropyl)methoxyl)-5,6,7,8-tetrahydropyrido[3,4-d]pyrimidin-4-yl)piperazin-2-yl) acetonitrile] | 0.0078 µM | 4.3 µM | –
C=CC(=O)N1CCN(c2nc(OCC3(CN(C)C)CCC3)nc3c2CCN(c2cccc4cccc(Cl)c24)C3)CC1CC#N (stereo not drawn) [Example 3, 2-(1-acroloyl-4-(7-(8-chloronaphthalen-1-yl)-2-((1-((dimethylamino)methyl)cyclobutyl)methoxyl)-5,6,7,8-tetrahydropyrido[3,4-d]pyrimidin-4-yl)piperazin-2-yl) acetonitrile] | 0.039 µM | 7.1 µM | –
C=CC(=O)N1CCN(c2nc(OCCN(C)CC3(F)CC3)nc3c2CCN(c2cccc4cccc(C)c24)C3)CC1CC#N (stereo not drawn) [Example 4] | – | 9.5 µM | 0.21 µM
C=CC(=O)N1CCN(c2nc(OCCN(CCOC)C3CCC3)nc3c2CCN(c2cccc4cccc(Cl)c24)C3)CC1CC#N (stereo not drawn) [Example 5] | 0.06 µM | 7.1 µM | –
C=CC(=O)N1CCN(c2nc(OCCN(C)CC3CC3(F)F)nc3c2CCN(c2cccc4cccc(Cl)c24)C3)CC1CC#N (stereo not drawn) [Example 6] | 0.11 µM | 9.9 µM | –
C=CC(=O)N1CCN(c2nc(OCCN(C)C3COC3)nc3c2CCN(c2cccc4cccc(C)c24)C3)CC1CC#N (stereo not drawn) [Example 7, 2-(1-acroloyl-4-(2-(2-(methyl(cyclobutoxy-3-yl)amino)ethyoxyl)-7-(8-methylnaphthalen-1-yl)-5,6,7,8-tetrahydropyrido[3,4-d]pyrimidin-4-yl)piperazin-2-yl) acetonitrile] | 0.072 µM | 8.2 µM | –
C=CC(=O)N1CCN(c2nc(OC[C@H](CC)N(C)C3CCC3)nc3c2CCN(c2cccc4cccc(Cl)c24)C3)CC1CC#N (stereo partly drawn) [Example 8, 2-(1-acroloyl-4-(7-(8-chloronaphthalen-1-yl)-2-((S)-2-(cyclobutyl (methyl)amino)butyloxy)-5,6,7,8-tetrahydropyrido[3,4-d]pyrimidin-4-yl)piperazin-2-yl) acetonitrile] | 0.13 µM | 7.04 µM | –
C=C(F)C(=O)N1CCN(c2nc(OCC3(CN(C)C)CC3)nc3c2C[C@H](C)N(c2cccc4ccc(F)c(Cl)c24)C3)C[C@@H]1CC#N [Example 96A, 2-((S)-4-((S)-7-(8-chloro-7-fluoronaphthalen-1-yl)-2-((1-((dimethylamino)methyl)cyclopropyl)methoxy)-6-methyl-5,6,7,8-tetrahydropyrido[3,4-d]pyrimidin-4-yl)-1-(2-fluoroacroloyl)piperazin-2-yl) acetonitrile] | – | – | 0.191 µM
C=C(F)C(=O)N1CCN(c2nc(OCC3(CN(C)C)CC3)nc3c2C[C@@H](C)N(c2cccc4ccc(F)c(Cl)c24)C3)C[C@@H]1CC#N [Example 96B, 2-((S)-4-((R)-7-(8-chloro-7-fluoronaphthalen-1-yl)-2-((1-((dimethylamino)methyl)cyclopropyl)methoxy)-6-methyl-5,6,7,8-tetrahydropyrido[3,4-d]pyrimidin-4-yl)-1-(2-fluoroacroloyl)piperazin-2-yl) acetonitrile] | – | – | 0.005 µM

Reference: patent publication US11459327B1, “Cycloalkyl and hetero-cycloalkyl inhibitors, preparation methods therefor, and use thereof” (Suzhou Zelgen Biopharmaceuticals Co., Ltd., priority 2019, dated 2022)
